Results from patent US20060229433A1, “Modified antiviral peptides with increased activity and cell membrane affinity” (priority 2003, published 2006).
Where “and” joins values, the source holds several entries; their conditions need not be identical. Identical values can stand only once. Square brackets hold non-standard residues; d marks the D form. Peptide text beside a SMILES is read from it. Ava = NCCCCC(=O)O

Experiments:
Format in all cases: cell-based
HIV-1 NL 4-3 [1] = assay: HIV-1 infection of C8166 cells (syncytia formation, p24 ELISA) with HIV-1 NL 4-3; design: key: ++, +, (+), (+)− and − represent decreasing numbers of syncitia formed; ++, +, (+), (+)− and − represent decreasing numbers of syncitia formed; ++, +, (+), (+)− and − represent decreasing numbers of syncitia formed; ++, +, (+), (+)− and − represent decreasing numbers of syncitia formed; ++, +, (+), (+)− and − represent decreasing numbers of syncitia formed; conditions: Table 6
Method in brief: (§1)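 Infection was read out as syncytia and as cell-free p24 in supernatants (ELISA) from C8166 cells that received HIV-1 (1000 TCID50/ml, 1 h, 37 °C) after a 1 h peptide pretreatment. Peptide stayed on before, during and after adsorption. Toxicity was checked by daily trypan-blue counts.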

HIV-1 NL 4-3 [2] = assay: as above; conditions: for Day 7 syncitia formed / P 24: Table 6; for P 24: Day 7
Method in brief: as §1

HIV-1 NDK = assay: HIV-1 infection of C8166 cells (syncytia formation, p24 ELISA) with HIV-1 NDK; design: key to syncitia formed, Day 4 / syncitia formed, Day 5 / syncitia formed, Day 6 / syncitia formed, Day 7: ++, +, (+), (+)− and − represent decreasing numbers of syncitia formed; ++, +, (+), (+)− and − represent decreasing numbers of syncitia formed; ++, +, (+), (+)− and − represent decreasing numbers of syncitia formed; ++, +, (+), (+)− and − represent decreasing numbers of syncitia formed; ++, +, (+), (+)− and − represent decreasing numbers of syncitia formed; conditions: for P 24: P 24 after Day 7
Method in brief: as §1

[3] = C8166 cells, HIV-1 subtype B NL 4-3, Table 9, two lines = tested twice, 8 days apart

C[C@H](NC(=O)[C@H](CCCNC(=N)N)NC(=O)CNC(=O)[C@@H]1CCCN1C(=O)CN)C(=O)N[C@@H](Cc1ccccc1)C(=O)NCCCCC(=O)O [SPC3 monomer valeric acid, GPGRAF-NHCH2CH2CH2CH2COOH] (H-GPGRAF[Ava]-OH; N-terminus assumed)
5 µM: IC100 (HIV-1 NL 4-3 [2]; [3]) | IC100 (HIV-1 NDK; HIV 1 NDK, Table 10)
11810 pg/mL and 15307 pg/mL: P 24 (HIV-1 NDK; 0.1 μM)
−: Day 4 syncitia formed (HIV-1 NL 4-3 [1]; 0.005 μM) | Day 4 syncitia formed (HIV-1 NL 4-3 [1]; 0.01 μM) | Day 4 syncitia formed (HIV-1 NL 4-3 [1]; 0.05 μM) | Day 4 syncitia formed (HIV-1 NL 4-3 [1]; 0.1 μM) | Day 4 syncitia formed (HIV-1 NL 4-3 [1]; 0.5 μM) | Day 5 syncitia formed (HIV-1 NL 4-3 [1]; 0.5 μM) | Day 4 syncitia formed (HIV-1 NL 4-3 [1]; 1 μM) | Day 5 syncitia formed (HIV-1 NL 4-3 [1]; 1 μM) | Day 6 syncitia formed (HIV-1 NL 4-3 [1]; 1 μM) | Day 4 syncitia formed (HIV-1 NL 4-3 [1]; 5 μM) | Day 5 syncitia formed (HIV-1 NL 4-3 [1]; 5 μM) | Day 6 syncitia formed (HIV-1 NL 4-3 [1]; 5 μM) | Day 7 syncitia formed (HIV-1 NL 4-3 [1]; 5 μM) | syncitia formed, Day 4 (HIV-1 NDK; 0.005 μM) | syncitia formed, Day 4 (HIV-1 NDK; 0.01 μM) | syncitia formed, Day 4 (HIV-1 NDK; 0.05 μM) | syncitia formed, Day 4 (HIV-1 NDK; 0.1 μM) | syncitia formed, Day 4 (HIV-1 NDK; 0.5 μM) | syncitia formed, Day 5 (HIV-1 NDK; 0.5 μM) | syncitia formed, Day 4 (HIV-1 NDK; 1 μM) | syncitia formed, Day 5 (HIV-1 NDK; 1 μM) | syncitia formed, Day 6 (HIV-1 NDK; 1 μM) | syncitia formed, Day 4 (HIV-1 NDK; 5 μM) | syncitia formed, Day 5 (HIV-1 NDK; 5 μM) | syncitia formed, Day 6 (HIV-1 NDK; 5 μM) | syncitia formed, Day 7 (HIV-1 NDK; 5 μM)
1840 pg/mL and 2830 pg/mL: P 24 (HIV-1 NL 4-3 [2]; 0.5 μM)
11840 pg/mL and 12240 pg/mL: P 24 (HIV-1 NDK; 0.5 μM)
325 pg/mL and 445 pg/mL: P 24 (HIV-1 NL 4-3 [2]; 1 μM)
20 nM: IC50 (HIV-1 NL 4-3 [2]; C8166 cells, HIV-1 subtype B NL 4-3, Table 3)
++/T: Day 7 syncitia formed (HIV-1 NL 4-3 [2]; 0.005 μM) | Day 7 syncitia formed (HIV-1 NL 4-3 [2]; 0.01 μM) | syncitia formed, Day 7 (HIV-1 NDK; 0.005 μM) | syncitia formed, Day 7 (HIV-1 NDK; 0.01 μM)
(+): Day 5 syncitia formed (HIV-1 NL 4-3 [1]; 0.1 μM) | Day 6 syncitia formed (HIV-1 NL 4-3 [1]; 0.5 μM) | Day 7 syncitia formed (HIV-1 NL 4-3 [1]; 1 μM) | syncitia formed, Day 7 (HIV-1 NDK; 1 μM)
23810 pg/mL: P 24 (HIV-1 NL 4-3 [2]; 0.005 μM) | P 24 (HIV-1 NDK; 0.005 μM)
+: Day 5 syncitia formed (HIV-1 NL 4-3 [1]; 0.005 μM) | Day 5 syncitia formed (HIV-1 NL 4-3 [1]; 0.01 μM) | Day 5 syncitia formed (HIV-1 NL 4-3 [1]; 0.05 μM) | Day 7 syncitia formed (HIV-1 NL 4-3 [1]; 0.5 μM) | syncitia formed, Day 5 (HIV-1 NDK; 0.005 μM) | syncitia formed, Day 5 (HIV-1 NDK; 0.01 μM) | syncitia formed, Day 5 (HIV-1 NDK; 0.05 μM) | syncitia formed, Day 5 (HIV-1 NDK; 0.1 μM) | syncitia formed, Day 6 (HIV-1 NDK; 0.5 μM)
21810 pg/mL: P 24 (HIV-1 NL 4-3 [2]; 0.01 μM) | P 24 (HIV-1 NDK; 0.01 μM)
+ and ++: Day 6 syncitia formed (HIV-1 NL 4-3 [1]; 0.1 μM)
++: Day 6 syncitia formed (HIV-1 NL 4-3 [1]; 0.005 μM) | Day 6 syncitia formed (HIV-1 NL 4-3 [1]; 0.01 μM) | Day 6 syncitia formed (HIV-1 NL 4-3 [1]; 0.05 μM) | Day 7 syncitia formed (HIV-1 NL 4-3 [1]; 0.05 μM) | Day 7 syncitia formed (HIV-1 NL 4-3 [1]; 0.1 μM) | syncitia formed, Day 6 (HIV-1 NDK; 0.005 μM) | syncitia formed, Day 6 (HIV-1 NDK; 0.01 μM) | syncitia formed, Day 6 (HIV-1 NDK; 0.05 μM) | syncitia formed, Day 7 (HIV-1 NDK; 0.05 μM) | syncitia formed, Day 6 (HIV-1 NDK; 0.1 μM) | syncitia formed, Day 7 (HIV-1 NDK; 0.1 μM) | syncitia formed, Day 7 (HIV-1 NDK; 0.5 μM)
50 nM: IC50 (HIV-1 NL 4-3 [2]; [3])
200 nM: IC50 (HIV-1 NDK; HIV 1 NDK, Table 10)
23810 pg/mL and 21810 pg/mL: P 24 (HIV-1 NDK; 0.05 μM)
3 pg/mL: P 24 (HIV-1 NL 4-3 [2]; 5 μM)
